Laboratory results taken from ChEMBL document CHEMBL1201862, “PubChem BioAssay data set” (2004).
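Each compound was tested at five concentrations against cells in 96-well plates for 48 hours. The concentration for 50% growth inhibition is given as GI50.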 The source made the active and inactive calls. No stated cut-off is given here; in the data, active = GI50 up to about 1.1 µM and inactive = higher. Where a SMILES comes first, the peptide text is derived from it.

How the values were obtained:
Assay in all cases: NCI anticancer screen, dose series, 48 h
SF-295 = tested on: SF-295
HOP-92 = tested on: HOP-92
OVCAR-4 = tested on: OVCAR-4
SN12C = tested on: SN12C
OVCAR-8 = tested on: OVCAR-8
786-0 = tested on: 786-0
A498 = tested on: A498
SF-268 = tested on: SF-268
NCI-H23 = tested on: NCI-H23
OVCAR-3 = tested on: OVCAR-3
MDA-N = tested on: MDA-N
EKVX = tested on: EKVX
SK-OV-3 = tested on: SK-OV-3
SK-MEL-2 = tested on: SK-MEL-2
K562 = tested on: K562
PC-3 = tested on: PC-3
HOP-62 = tested on: HOP-62
SR = tested on: SR
MOLT-4 = tested on: MOLT-4
DU-145 = tested on: DU-145

COc1ccc(Cc2c(N)[nH]c(=O)[nH]c2=O)cc1
GI50 (SF-295): > 100 µM (inactive)
GI50 (HOP-92): 33.3 µM (inactive)
GI50 (OVCAR-4): > 100 µM (inactive)
GI50 (SN12C): > 100 µM (inactive)
GI50 (OVCAR-8): > 100 µM (inactive)
GI50 (786-0): > 100 µM (inactive)
GI50 (A498): > 100 µM (inactive)
GI50 (SF-268): > 100 µM (inactive)
GI50 (NCI-H23): > 100 µM (inactive)
GI50 (OVCAR-3): > 100 µM (inactive)
GI50 (MDA-N): > 100 µM (inactive)
GI50 (EKVX): > 100 µM (inactive)
GI50 (SK-OV-3): > 100 µM (inactive)
GI50 (SK-MEL-2): > 100 µM (inactive)
GI50 (K562): > 100 µM (inactive)
GI50 (PC-3): > 100 µM (inactive)
GI50 (HOP-62): > 100 µM (inactive)

COc1ccc(NC(=O)CC(=O)N2N=C(N(CCC#N)c3ccccc3Cl)CC2c2ccccc2)cc1 (stereo not given)
GI50 (SF-295): > 100 µM (inactive)
GI50 (SR): > 100 µM (inactive)
GI50 (HOP-92): > 100 µM (inactive)
GI50 (OVCAR-4): > 100 µM (inactive)
GI50 (SN12C): > 100 µM (inactive)
GI50 (OVCAR-8): > 100 µM (inactive)
GI50 (786-0): > 100 µM (inactive)
GI50 (A498): > 100 µM (inactive)
GI50 (SF-268): > 100 µM (inactive)
GI50 (NCI-H23): > 100 µM (inactive)
GI50 (OVCAR-3): > 100 µM (inactive)
GI50 (EKVX): > 100 µM (inactive)
GI50 (SK-MEL-2): > 100 µM (inactive)
GI50 (K562): > 100 µM (inactive)
GI50 (MOLT-4): > 100 µM (inactive)
GI50 (HOP-62): > 100 µM (inactive)

CC1(C)CC(=O)C(=CNC(=S)c2ccccc2)C(=O)C1
GI50 (SF-295): > 100 µM (inactive)
GI50 (HOP-92): > 100 µM (inactive)
GI50 (OVCAR-4): > 100 µM (inactive)
GI50 (SN12C): > 100 µM (inactive)
GI50 (OVCAR-8): > 100 µM (inactive)
GI50 (786-0): > 100 µM (inactive)
GI50 (SF-268): > 100 µM (inactive)
GI50 (NCI-H23): > 100 µM (inactive)
GI50 (OVCAR-3): > 100 µM (inactive)
GI50 (MDA-N): > 100 µM (inactive)
GI50 (EKVX): > 100 µM (inactive)
GI50 (DU-145): > 100 µM (inactive)
GI50 (SK-OV-3): > 100 µM (inactive)
GI50 (SK-MEL-2): > 100 µM (inactive)
GI50 (MOLT-4): 13.6 µM (inactive)
GI50 (PC-3): > 100 µM (inactive)
GI50 (HOP-62): > 100 µM (inactive)

O=C(O)C1=Cc2cccc3cccc(c23)C1=O
GI50 (SF-295): > 100 µM (inactive)
GI50 (SR): > 100 µM (inactive)
GI50 (OVCAR-4): > 100 µM (inactive)
GI50 (SN12C): > 100 µM (inactive)
GI50 (OVCAR-8): > 100 µM (inactive)
GI50 (786-0): > 100 µM (inactive)
GI50 (A498): 24.3 µM (inactive)
GI50 (SF-268): > 100 µM (inactive)
GI50 (NCI-H23): > 100 µM (inactive)
GI50 (OVCAR-3): > 100 µM (inactive)
GI50 (EKVX): > 100 µM (inactive)
GI50 (SK-OV-3): > 100 µM (inactive)
GI50 (SK-MEL-2): > 100 µM (inactive)
GI50 (K562): > 100 µM (inactive)
GI50 (MOLT-4): > 100 µM (inactive)
GI50 (HOP-62): > 100 µM (inactive)

COC(=O)[C@@]12OC[C@]34C([C@@H](O)C1O)[C@@]1(C)CC(=O)C(OC(=O)CC(C)C(F)(F)F)=C(C)C1C[C@H]3OC(=O)[C@H](O)[C@H]42 (stereo not given in full)
GI50 (SF-295): 5.16 µM (inactive)
GI50 (SR): 2.73 µM (inactive)
GI50 (HOP-92): 0.887 µM (active)
GI50 (OVCAR-4): 14.7 µM (inactive)
GI50 (SN12C): 2 µM (inactive)
GI50 (OVCAR-8): 4.71 µM (inactive)
GI50 (786-0): 1.92 µM (inactive)
GI50 (A498): 0.156 µM (active)
GI50 (SF-268): 6.85 µM (inactive)
GI50 (NCI-H23): 1.38 µM (inactive)
GI50 (EKVX): 26.5 µM (inactive)
GI50 (SK-OV-3): 5.24 µM (inactive)
GI50 (SK-MEL-2): 2.95 µM (inactive)
GI50 (K562): 6.05 µM (inactive)
GI50 (MOLT-4): 0.771 µM (active)
GI50 (HOP-62): 15 µM (inactive)

CCCCCCCCCCCCCCCCOCC(CP(=O)([O-])OCC[n+]1ccccc1)OC (stereo not given)
GI50 (SF-295): 4.38 µM (inactive)
GI50 (SR): 3.5 µM (inactive)
GI50 (HOP-92): 2.28 µM (inactive)
GI50 (OVCAR-4): 11.4 µM (inactive)
GI50 (SN12C): 11.4 µM (inactive)
GI50 (OVCAR-8): 14.7 µM (inactive)
GI50 (786-0): 14 µM (inactive)
GI50 (A498): 11.3 µM (inactive)
GI50 (SF-268): 7.1 µM (inactive)
GI50 (NCI-H23): 4.05 µM (inactive)
GI50 (OVCAR-3): 12.6 µM (inactive)
GI50 (EKVX): 16.5 µM (inactive)
GI50 (SK-OV-3): 17.7 µM (inactive)
GI50 (SK-MEL-2): 16.5 µM (inactive)
GI50 (K562): 17.1 µM (inactive)
GI50 (MOLT-4): 4.65 µM (inactive)
GI50 (HOP-62): 11.6 µM (inactive)

CCC(C)C1NC(=O)C2CCCN2C(=O)CNC(=O)C(C)NC(=O)C(Cc2ccccc2)NC(=O)C(C(C)C)NC1=O (stereo not given) (cyclo(GPIVFA); configuration not given here)
GI50 (SF-295): > 100 µM (inactive)
GI50 (SR): > 100 µM (inactive)
GI50 (HOP-92): > 100 µM (inactive)
GI50 (OVCAR-4): > 100 µM (inactive)
GI50 (SN12C): > 100 µM (inactive)
GI50 (OVCAR-8): > 100 µM (inactive)
GI50 (786-0): > 100 µM (inactive)
GI50 (A498): > 100 µM (inactive)
GI50 (SF-268): > 100 µM (inactive)
GI50 (NCI-H23): > 100 µM (inactive)
GI50 (OVCAR-3): > 100 µM (inactive)
GI50 (EKVX): > 100 µM (inactive)
GI50 (SK-OV-3): > 100 µM (inactive)
GI50 (MOLT-4): > 100 µM (inactive)
GI50 (HOP-62): > 100 µM (inactive)

CCOC(C)C(/C=N/NC(N)=S)=NNC(N)=S (stereo not given) [GLOXAZONE]
GI50 (SF-295): 1.64 µM (inactive)
GI50 (SR): < 0.0251 µM (active)
GI50 (HOP-92): 46.1 µM (inactive)
GI50 (OVCAR-4): > 100 µM (inactive)
GI50 (SN12C): > 100 µM (inactive)
GI50 (OVCAR-8): > 100 µM (inactive)
GI50 (786-0): > 100 µM (inactive)
GI50 (A498): 21.9 µM (inactive)
GI50 (SF-268): > 100 µM (inactive)
GI50 (NCI-H23): > 100 µM (inactive)
GI50 (EKVX): 0.248 µM (active)
GI50 (SK-OV-3): > 100 µM (inactive)
GI50 (SK-MEL-2): 29.1 µM (inactive)
GI50 (K562): < 0.0195 µM (active)
GI50 (MOLT-4): < 0.0254 µM (active)
GI50 (HOP-62): > 100 µM (inactive)
